# Assay results: article PMC8805583, “Discovery of Herbacetin as a Novel SGK1 Inhibitor to Alleviate Myocardial Hypertrophy” (Advanced Science, 2021)
# Experiments:
# SGK1 = target: T1, SGK1 (Homo sapiens, UniProt O00141); assay: Mass spectrometry-based SGK1 kinase inhibitory assay (LC/MS of phosphorylated […]); type: biochemical; conditions: MS-based kinase inhibitory assay
# T1 sequence (O00141 1-431): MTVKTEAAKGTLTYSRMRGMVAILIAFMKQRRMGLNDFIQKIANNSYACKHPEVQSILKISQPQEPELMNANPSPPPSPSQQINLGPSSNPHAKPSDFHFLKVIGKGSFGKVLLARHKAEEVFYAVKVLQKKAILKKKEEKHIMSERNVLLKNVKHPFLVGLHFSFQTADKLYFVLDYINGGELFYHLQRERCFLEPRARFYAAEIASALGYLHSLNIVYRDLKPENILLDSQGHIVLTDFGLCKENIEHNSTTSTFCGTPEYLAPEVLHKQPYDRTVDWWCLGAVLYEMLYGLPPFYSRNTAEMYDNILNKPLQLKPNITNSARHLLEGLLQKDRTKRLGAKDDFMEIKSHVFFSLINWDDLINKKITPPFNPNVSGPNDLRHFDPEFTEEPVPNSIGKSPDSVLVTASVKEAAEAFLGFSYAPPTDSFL
# Source text: To identify active compounds with SGK1 inhibitory activity from Ext.R, a novel mass‐spectrometry based kinase inhibitory assay was developed. A polypeptide sequence ([…], m/z: 618.6) derived from glycogen Synthase Kinase‐3(GSK3), a known substrate of SGK1, was optimized and synthesized. We subsequently used liquid chromatography coupled with mass spectrometry (LC/MS) to detect and quantify its phosphorylation level ([…](p)FAE, m/z:658.7) (Figure 3A).^[ [26] ^] Basal level SGK1 was supplemented to each well, and the peak area of phosphorylation was measured in the presence or absence of testing compounds. […] After investigating the major chemical constituents in Ext.R (Table S3, Supporting Information), a set of compounds in Ext.R were subsequently screened for their impacts on SGK1 activity. […] The direct interaction between HBT and SGK1 was further verified by temperature‐ and dose‐dependent cellular thermal shift assays (Figure 3E,F). We further performed a direct binding assay of HBT to SGK1 by KINOMEscan assay (Eurofins Discovery).
# Synthesis of […] was prepared by Shanghai Sangong Biotech. In order to ensure the phosphorylation reaction of SGK1, SGK1 (0.25 µg mL^−1) was added to kinase buffer (25 mmol Tris [pH 7.5], 5 mmol β‐glycerolphosphate, 2 mmol DTT, 10 mmol MgCl2) with the substrate peptide […] (25 µmol) and ATP (200 µmol) and incubated for 1 h at 30 °C in the presence or absence of inhibitors. A concentration‐dependent assay for SGK1 at different concentrations (0.05, 0.1, 0.2, 0.25, and 0.3 µg mL^−1) was performed. Reactions were terminated by the addition of methyl alcohol with 0.1% trifluoroacetic acid (TFA), and supernatants were analyzed by the Agilent 1100 LC system (Agilent Technologies, USA) and a 1946D single quadrupole mass spectrometer. The acquisition parameters for LC/MS were set for positive ionization mode and selected ion monitoring (SIM) m/z values of 618.6 and 658.7 for the substrate peptide and product peptide respectively. Chromatographic separation was performed by a reversed‐phase ZORBAX SB‐C18 analytical column. The mobile phase included water containing 0.1% v/v TFA (A) and acetonitrile containing 0.1% v/v TFA (B). The flow rate was 0.6 mL min^−1. A gradient program was carried out according to the following profile: 0 min, 13% B; 15 min, 28% B; 16 min, 100% B. The constituents of Ext.R were screened by the assay to evaluate their inhibitory effects on SGK1 activity. A minimum of three replicates of each sample were analyzed and averaged together. Inhibition of SGK1 was calculated by the following equation (1) Inhibitionrate%=PC−PS/PC P C and P S represented the peak area of product peptide in the control group without test compounds and the tested sample group with various test compounds, respectively.
# SGK1-FoxO1 interaction = target: T2, SGK1-FoxO1 interaction (Rattus norvegicus, UniProt Q06226); assay: Co-immunoprecipitation of SGK1 and FoxO1 in cardiomyocytes; type: cell-based; conditions: coimmunoprecipitation
# T2 construct: endogenous in cells; host or cells: primary neonatal rat cardiomyocytes
# T2 sequence (Q06226 1-430): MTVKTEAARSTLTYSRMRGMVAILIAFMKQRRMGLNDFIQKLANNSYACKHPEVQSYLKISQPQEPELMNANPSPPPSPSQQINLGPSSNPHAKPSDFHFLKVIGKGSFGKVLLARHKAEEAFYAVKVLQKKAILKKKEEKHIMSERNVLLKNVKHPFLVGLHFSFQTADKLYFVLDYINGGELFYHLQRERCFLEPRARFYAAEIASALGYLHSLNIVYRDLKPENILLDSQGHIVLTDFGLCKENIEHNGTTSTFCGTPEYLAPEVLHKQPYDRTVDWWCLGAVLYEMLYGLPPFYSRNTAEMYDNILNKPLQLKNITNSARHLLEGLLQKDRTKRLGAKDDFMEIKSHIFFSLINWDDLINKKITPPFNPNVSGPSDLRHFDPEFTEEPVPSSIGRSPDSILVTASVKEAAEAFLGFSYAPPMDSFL
# Procedure: In the present study, we studied HBT's effect on protein binding between SGK1 and FoxO1 by coimmunoprecipitation (Figure 5E). […] Nevertheless, as previously reported,^[ [30] ^] […] Supportively, after transfection with the SGK1(S422D) plasmid, we consistently detected increased cytoplasmic signal of FoxO1 compared to nontransfected cells in which the majority of FoxO1 signal was distributed in the nucleus.
# For the endogenous interaction assay, cardiomyocytes were treated with HBT or vehicle. After 24 h, cells were lysed with cell lysis buffer contained PMSF (Phenylmethylsulfonyl fluoride, a protease inhibitor). Protein extracts were harvested and immunoprecipitated with anti‐SGK1 or anti‐IgG antibody and protein A/G beads, and then measured by western blotting analysis.
# control mice = assay: HBT in control mice (safety); type: in vivo
# Procedure: Finally, we evaluate the safety and pharmacokinetics of HBT to ensure its druggability. […] Single dose administration of HBT at 40 mg kg^−1 was uptaken rapidly with a maximal plasma concentration of ≈6.73 ng mL^−1 after 10 min (Figure S14A, Supporting Information).
# Figure S12. The mice were divided into two groups: Sham, Sham mice treated with HBT (Ctrl + HBT). (A) Schedule of animal treatments. (B) Heart weight/Body weight ratio (HW/BW) was detected in Ctrl and Ctrl + HBT group. (C-D) Echocardiography assessments were performed in the two groups. n=10-12. (E) HE in different groups of mice. n=4, Scale bar=50 μm. (F) The phosphorylation level of SGK1 in myocardial tissues in the two groups (Ctrl, Ctrl + HBT), n=4. Data were analyzed using unpaired two-tailed t test and data were expressed as means ± SD, ns: no significant.
# (1 picture or pasted object on this page, not shown here)
# Figure S13. Serum level of biochemical markers in mice of Ctrl and Ctrl + HBT groups. Data were analyzed using unpaired two-tailed t test and data were expressed as means ± SD, ns: no […]
# Figure S14. Plasma concentration (A) and in vivo distribution (B) of HBT after single oral administration with dosage of 40mg/kg rat weight (n=5-6). The quantitation of HBT was performed by LC-MS/MS analysis. […]
smiles,measurement,setting,value
"O=c1c(O)c(-c2ccc(O)cc2)oc2c(O)c(O)cc(O)c12 [HBT, herbacetin]",IC50,SGK1,752 nM
same,direct binding between SGK1 and FoxO1,SGK1-FoxO1 interaction,did not detect significant impact
same,"heart weight, cardiac function, cardiac histopathology",control mice; control mice,no adverse effect
same,"serum level of regular biomarkers (ALT, AST, TCHO)",control mice; control versus HBT-treated mice,no significant difference
